The text below walks through data of patent publication US11834467B2, “Substituted indazoles as hematopoietic progenitor kinase 1 (HPK1) inhibitors” (1ST Biotherapeutics, Inc., priority 2020, dated 2023).

What is called EC50 is the concentration needed to bring the measured effect to its halfway point.

Read-outs that look alike come from different tables or passages of the source.

The assay deals with human peripheral blood pan T cells. In words: IFNγ and IL-2 secretion analysis of human peripheral pan T cells. The assay is classed as cell-based. As to conditions: CD3/CD28 stimulation, 100 nM Prostaglandin E2, 24 hr. As to the method:
Human peripheral blood pan T cells were purchased from STEMCELL™ Technologies Inc. Human peripheral blood pan T cells were thawed and suspended in DMEM media (10% FBS and 100 Penicillin/Streptomycin). 8×10^4 T cells were seeded in 96-well plate and incubated with various concentration of compounds and 100 nM Prostaglandin E2 for 1 hr. T cells were stimulated with Dynabeads Human T-Activator CD3/CD28 (Life Technologies) at a 1:3 cells:beads ratio. […] Data were analyzed with an MESO Quickplex SQ120 (Mesoscale Discovery).

[1] abbreviates: Homo sapiens, T-cell, 24 h, IFNγ secretion, read-out: IFNγ (EC50).
Where [2] appears, read: Homo sapiens, T-cell, 24 h, IL-2 secretion, read-out: IL-2 (EC50).

`CCc1c(F)c(N(C)C)c2[nH]ncc2c1-c1cn2cc(NC(=O)[C@@H]3C[C@@H]3F)nc2cn1` [Example 26]: the concentration for a half-maximal effect (EC50) reads like this: under setting [1], less than 0.2 µM; under setting [2], 0.2 to 1 µM.

Regarding `CCc1c(F)c(N(C)C)c2[nH]ncc2c1-c1ccc2nc(NC(=O)[C@@H]3C[C@@H]3F)cn2n1` [Example 7], the EC50 is, setting by setting: under setting [1], 0.2 to 1 µM; under setting [2], 0.2 to 1 µM.

As for `CN(c1c(F)c(Cl)c(-c2cn3cc(NC(=O)[C@@H]4C[C@@H]4F)nc3cn2)c2cn[nH]c12)C1CC1` [Example 58], the EC50 was less than 0.2 µM under setting [1] and 0.2 to 1 µM under setting [2].

Turning to `CC(C)Nc1c(F)c(Cl)c(-c2cn3cc(NC(=O)[C@@H]4C[C@@H]4F)nc3cn2)c2cn[nH]c12` [Example 61, (1S,2S)—N-(6-(5-chloro-6-fluoro-7-(isopropylamino)-1H-indazol-4-yl)imidazo[1,2-a]pyrazin-2-yl)-2-fluorocyclopropane-1-carboxamide], the EC50 by setting is: under setting [1], less than 0.2 µM; under setting [2], 0.2 to 1 µM.

With `CCc1c(F)cc2[nH]ncc2c1-c1ccc2nc(NC(=O)[C@@H]3C[C@@H]3F)cn2n1` [Example 4], the EC50 under setting [1] is less than 0.2 µM and the EC50 under setting [2] lay in the range of 0.2 to 1 µM.

In the case of `CCN(C)c1c(F)c(C(F)(F)F)c(-c2cn3cc(NC(=O)[C@@H]4C[C@@H]4F)nc3cn2)c2cn[nH]c12` [Example 42], the EC50 reads like this: under setting [1], less than 0.2 µM; under setting [2], 0.2 to 1 µM.

For `CC(C)c1c(F)c(Cl)c(-c2cn3cc(NC(=O)[C@@H]4C[C@@H]4F)nc3cn2)c2cn[nH]c12` [Example 64, (1S,2S)—N-(6-(5-chloro-6-fluoro-7-isopropyl-1H-indazol-4-yl)imidazo[1,2-a]pyrazin-2-yl)-2-fluorocyclopropane-1-carboxamide], the EC50 reads like this: under setting [1], less than 0.2 µM; under setting [2], less than 0.2 µM.

On to `CC(C)N(C)c1c(F)c(Cl)c(-c2cn3cc(NC(=O)[C@@H]4C[C@@H]4F)nc3cn2)c2cn[nH]c12` [Example 62], for which the EC50 is less than 0.2 µM under setting [1] and 0.2 to 1 µM under setting [2].

As to `CSc1c(F)c(Cl)c(-c2cn3cc(NC(=O)[C@@H]4C[C@@H]4F)nc3cn2)c2cn[nH]c12` [Example 38], the EC50 is 0.2 to 1 µM under setting [1]; 0.2 to 1 µM under setting [2]; less than 0.2 µM (IFNγ secretion, read-out: IFNγ (EC50)).

As to `CCOc1c(F)c(Cl)c(-c2cn3cc(NC(=O)[C@@H]4C[C@@H]4F)nc3cn2)c2cn[nH]c12` [Example 34], the EC50 is, setting by setting: under setting [1], less than 0.2 µM; under setting [2], 0.2 to 1 µM.

Turning to `CCN(C)c1c(F)c(Cl)c(-c2cn3cc(NC(=O)[C@@H]4C[C@@H]4F)nc3cn2)c2cn[nH]c12` [Example 41], the EC50 is, setting by setting: under setting [1], less than 0.2 µM; under setting [2], 0.2 to 1 µM.

For the compound `CSc1c(F)c(SC)c2[nH]ncc2c1-c1cn2cc(NC(=O)[C@@H]3C[C@@H]3F)nc2cn1` [Example 27], the EC50 under setting [1] was less than 0.2 µM.

Regarding `CCOc1c(F)c(CC)c(-c2cn3cc(NC(=O)[C@@H]4C[C@@H]4F)nc3cn2)c2cn[nH]c12` [Example 44], the EC50 reads like this: under setting [1], less than 0.2 µM; under setting [2], 0.2 to 1 µM.

Take `CCOc1c(F)c(CC)c(-c2ccc3nc(NC(=O)[C@@H]4C[C@@H]4F)cn3n2)c2cn[nH]c12` [Example 13]: the concentration for a half-maximal effect (EC50) lay within 0.2 to 1 µM under setting [1] and 0.2 to 1 µM under setting [2].

Regarding `CN(C)c1c(F)c(C(F)(F)F)c(-c2cn3cc(NC(=O)[C@@H]4C[C@@H]4F)nc3cn2)c2cn[nH]c12` [Example 40], the 50% effective concentration (EC50) was less than 0.2 µM under setting [1] and 0.2 to 1 µM under setting [2].

`CN(C)c1c(F)c(Cl)c(-c2cn3cc(NC(=O)[C@@H]4C[C@@H]4F)nc3cn2)c2cn[nH]c12` [Example 33]: the EC50 is, setting by setting: under setting [1], less than 0.2 µM; under setting [2], 0.2 to 1 µM.
